# Source: US20240374631A1, “A COMPOSITION FOR IMPROVING GUT MICROBIOTA, BEHAVIOURAL PATTERN, ALPHA-SYNUCLEIN LEVELS, SLEEP PATTERN AND/OR SERUM MELATONIN” (GN Corporation Co Ltd, priority 2021, published 2024)
# Tested on: gut microbiota
# Assay: Gut microbiome analysis (16S rRNA sequencing of fecal samples) in STAM model of NASH
# Type: in vivo, C57BL/6J mice
# Settings: post-intervention
# Description: The study is reported in accordance with Animal Research: Reporting of In Vivo Experiments (ARRIVE) guidelines. C57BL/6J mice were obtained from Japan SLC, Inc. (Japan). All animals used in this study were cared for under the following guidelines: Act on Welfare and Management of Animals (Ministry of the Environment, Japan, Act No. 105 of Oct. 1, 1973), standards relating to the care and management of laboratory animals and relief of pain (Notice No. 88 of the Ministry of the Environment, Japan, Apr. 28, 2006) and the guidelines for proper conduct of animal experiments (Science Council of Japan, Jun. 1, 2006). Protocol approvals were obtained from SMC Laboratories, Japan's IACUC (Study reference no: […] Mice were maintained in a specific pathogen-free (SPF) facility under controlled conditions of temperature (23±3° C.), humidity (50±20%), lighting (12-hour artificial light and dark cycles; light from 8:00 to 20:00) and air exchange. The STAM model of NASH was induced as previously described [D10]. Mice were given a single subcutaneous injection of 200 μg streptozotocin (STZ, Sigma-Aldrich, USA) solution 2 days after birth and fed with a high-fat diet (HFD, 57 kcal % fat, Cat #HFD32, CLEA Japan, Inc., Japan) from 4-9 weeks of age. All mice develop liver steatosis and diabetes and at […] mice had established steatohepatitis, histologically. Studygroups: There were five study groups, described below. Eight mice were included in each study group. Eight NASH mice were orally administered vehicle supplemented with AFO-202 Beta Glucan at a dose of 1 mg/kg in a volume of 5 mL/kg once daily from 6 to 9 weeks of age. Eight NASH mice were orally administered vehicle supplemented with Telmisartan at a dose of 10 mg/kg once daily from 6 to 9 weeks of age. Frequency: Fecal samples were collected at the 6 weeks of age (before administration) and 9 weeks of age (before sacrifice). Procedure: At 6 weeks of age, fecal samples were collected from each mouse by clean catch method. […] A sterile petri dish was placed on the bench. Gently massage the abdomen, position the bottom of mouse over a fresh petri dish, and collect 1-2 fecal pellets. At sacrifice, fecal samples were aseptically collected from cecum. The tubes with feces were placed on ice immediately. These tubes were snap frozen in liquid nitrogen and stored at -80° C. for shipping. In this analysis, the 16S rRNA sequence data acquired by the next-generation sequencer from the fecal […] was used to perform community analysis using the QIIME2 program for microbial community analysis. The raw read data in FASTQ format output from the next-generation sequencer was trimmed to remove adapter sequences and low QV regions that may be included in the data. Cutadapt was used to remove adapter sequences from DNA sequencing reads. Trimmomatic was used as read trimming tool for Illumina NGS data. The adapter sequence was trimmed using the adapter trimming program “cutadapt” if the Trimming of the region at the end of the read sequence overlapped the corresponding sequence by at least one base (mismatch tolerance: 20%). When reads containing N were present in at least one of Read1 and Read2, both Read1 and Read2 were removed. Trimming of low QV regions was performed on the read data after processing using the QV trimming program “Trimmomatic” under the following conditions. The window of 20 bases is slid from the 5' side, and the area where the average QV is less than 20 is trimmed. After trimming, only the reads with more than 50 bases remaining in both Read1 and Read2 were taken as output. The microbial community analysis based on 16S rRNA sequence was performed on the sequence data trimmed in the previous section using the microbial community analysis program “QIIME2”. The annotation program “sklearn” included in QIIME2 is used to annotate the ASV (OTU) sequences. […]
compound,measurement,setting,value
CCCc1nc2c(C)cc(-c3nc4ccccc4n3C)cc2n1Cc1ccc(-c2ccccc2C(=O)O)cc1 [Telmisartan],"Abundance: Ruminococcaceae, Oscillospira, —",line r190,135
same,"Abundance: Ruminococcaceae, Oscillospira, —",line r191,53
same,"Abundance: Lachnospiraceae, [Ruminococcus], gnavus",line r192,87
same,"Abundance: Ruminococcaceae, Oscillospira, —",line r193,42
same,"Abundance: Lactobacillaceae, Lactobaccilus, reuteri",line r194,0
same,"Abundance: Coriobacteriaceae, Adlercreutzia, —",line r195,0
same,"Abundance: Lachnospiraceae, —, —",line r196,0
same,"Abundance: S24-7, —, —",line r197,49
same,"Abundance: Turicibacteraceae, Turicibacter, —",line r198,0
same,"Abundance: S24-7, —, —",line r199,41
same,"Abundance: Rikenellaceae, —, —",line r200,86
same,"Abundance: Enterobacteriaceae, Other, Other",line r201,0
same,"Abundance: Rikenellaceae, Other, Other",line r202,53
same,"Abundance: Lactobacillaceae, Lactobaccilus, Other",line r204,0
same,"Abundance: —, —, —",line r205,0
same,"Abundance: S24-7, —, —",line r206,45
same,"Abundance: S24-7, —, —",line r207,109
same,"Abundance: —, —, —",line r208,19
same,"Abundance: Enterobacteriaceae, Klebsiella, Other",line r209,0
same,"Abundance: —, —, —",line r210,3
same,"Abundance: Lachnospiraceae, Other, Other",line r211,137
same,"Abundance: Ruminococcaceae, Oscillospira, —",line r212,0
same,"Abundance: Ruminococcaceae, Oscillospira, —",line r213,65
same,"Abundance: Bacteroidaceae, Bacteroides, acidifaciens",line r214,35
same,"Abundance: Erysipelotrichaceae, —, —",line r215,0
same,"Abundance: Lachnospiraceae, Dorea, —",line r216,74
same,"Abundance: Enterobacteriaceae, Enterobacter, Other",line r217,41
same,"Abundance: Ruminococcaceae, Oscillospira, —",line r218,45
same,"Abundance: Ruminococcaceae, Other, Other",line r219,12
same,"Abundance: Ruminococcaceae, Oscillospira, —",line r220,184
same,"Abundance: Rikenellaceae, —, —",line r221,43
same,"Abundance: —, —, —",line r222,79
same,"Abundance: Lachnospiraceae, Other, Other",line r223,273
same,"Abundance: Other, Other, Other",line r224,87
same,"Abundance: Ruminococcaceae, Oscillospira, —",line r225,72
same,"Abundance: S24-7, —, —",line r226,85
same,"Abundance: Lachnospiraceae, —, —",line r227,0
same,"Abundance: Streptococcaceae, Staphylococcus, —",line r228,27
same,"Abundance: —, —, —",line r229,0
same,"Abundance: —, —, —",line r230,0
same,"Abundance: —, —, —",line r231,101
same,"Abundance: Other, Other, Other",line r232,71
same,"Abundance: Aerococcaceae, Aerococcus, —",line r233,187
same,"Abundance: Ruminococcaceae, —, —",line r234,0
same,"Abundance: —, —, —",line r235,108
same,"Abundance: Ruminococcaceae, Oscillospira, —",line r237,26
same,"Abundance: —, —, —",line r238,51
same,"Abundance: Ruminococcaceae, Ruminococcus, —",line r239,43
same,"Abundance: —, —, —",line r240,266
same,"Abundance: Other, Other, Other",line r241,48
same,"Abundance: Ruminococcaceae, Oscillospira, —",line r242,0
same,"Abundance: Lachnospiraceae, [Ruminococcus], gnavus",line r243,95
same,"Abundance: Lachnospiraceae, —, —",line r244,0
same,"Abundance: Other, Other, Other",line r245,45
same,"Abundance: Ruminococcaceae, Oscillospira, —",line r246,23
same,"Abundance: —, —, —",line r247,90
same,"Abundance: Other, Other, Other",line r248,11
same,"Abundance: Other, Other, Other",line r249,53
same,"Abundance: Other, Other, Other",line r250,57
same,"Abundance: Lachnospiraceae, Clostridium, Other",line r251,101
same,"Abundance: Lachnospiraceae, —, —",line r252,23
same,"Abundance: Other, Other, Other",line r253,0
same,"Abundance: Other, Other, Other",line r254,51
same,"Abundance: Ruminococcaceae, Oscillospira, —",line r255,38
same,"Abundance: Desulfovibrionaceae, —, —",line r256,42
same,"Abundance: Dehalobacteriaceae, Dehalobacterium, —",line r257,0
same,"Abundance: Ruminococcaceae, Ruminococcus, —",line r259,22
same,"Abundance: Lachnospiraceae, Coprococcus, —",line r260,46
same,"Abundance: Ruminococcaceae, Oscillospira, —",line r261,77
same,"Abundance: Other, Other, Other",line r262,38
same,"Abundance: Lachnospiraceae, Coprococcus, —",line r263,49
same,"Abundance: Ruminococcaceae, Oscillospira, —",line r264,0
same,"Abundance: Christensenellaceae, —, —",line r265,9
same,"Abundance: S24-7, —, —",line r266,8
same,"Abundance: Ruminococcaceae, Oscillospira, —",line r267,0
same,"Abundance: Lachnospiraceae, Coprococcus, —",line r268,29
same,"Abundance: Lachnospiraceae, Other, Other",line r269,0
same,"Abundance: Erysipelotrichaceae, Clostridium, cocleatum",line r271,34
same,"Abundance: —, —, —",line r272,0
same,"Abundance: Desulfovibrionaceae, Bilophila, —",line r273,17
same,"Abundance: —, —, —",line r274,0
same,"Abundance: Corynebacteriaceae, Corynebacterium, stationis",line r275,0
same,"Abundance: Lachnospiraceae, Other, Other",line r276,34
same,"Abundance: Lachnospiraceae, Other, Other",line r277,82
same,"Abundance: Lachnospiraceae, —, —",line r278,10
same,"Abundance: Lachnospiraceae, —, —",line r279,0
same,"Abundance: —, —, —",line r280,0
same,"Abundance: —, —, —",line r281,84
same,"Abundance: —, —, —",line r282,0
same,"Abundance: Ruminococcaceae, —, —",line r283,0
same,"Abundance: —, —, —",line r284,0
same,"Abundance: Lachnospiraceae, —, —",line r285,0
same,"Abundance: Dehalobacteriaceae, Dehalobacterium, —",line r286,43
same,"Abundance: Other, Other, Other",line r287,68
same,"Abundance: Streptococcaceae, Streptococcus, luteciae",line r288,0
same,"Abundance: —, —, —",line r289,0
same,"Abundance: S24-7, —, —",line r290,36
same,"Abundance: Ruminococcaceae, Ruminococcus, —",line r292,0
same,"Abundance: Lachnospiraceae, Clostridium, Other",line r293,0
same,"Abundance: —, —, —",line r294,10
same,"Abundance: Ruminococcaceae, Oscillospira, —",line r295,22
same,"Abundance: Lachnospiraceae, Coprococcus, —",line r296,30
same,"Abundance: —, —, —",line r297,0
